Patent publication US20240409585A1, “MACROCYCLIC IMMUNOMODULATORS” (priority 2021, published 2024)
Bridge positions count the residues as written; N and C are the ends. Square brackets hold non-standard residues; d marks the D form. Peptide text beside a SMILES is read from it. * marks the point of attachment. ξ: configuration not given here. Phe(4-COOH) = N[C@@H](Cc1ccc(C(=O)O)cc1)C(=O)O; Bip = N[C@@H](Cc1ccc(-c2ccccc2)cc1)C(=O)O; Phe(2-Cl) = N[C@@H](Cc1ccccc1Cl)C(=O)O; Phe(3-Me) = Cc1cccc(C[C@H](N)C(=O)O)c1; Val(3-OH) = CC(C)(O)[C@H](N)C(=O)O; aIle = CC[C@@H](C)[C@H](N)C(=O)O; Cha = N[C@@H](CC1CCCCC1)C(=O)O; Ile(3ξ) = CCC(C)[C@H](N)C(=O)O; dPhg = N[C@@H](C(=O)O)c1ccccc1; Carboxymethyl = O=C(O)C*; NMeA = CN[C@@H](C)C(=O)O; Pra = C#CC[C@H](N)C(=O)O; Dab = NCC[C@H](N)C(=O)O; Dap = NC[C@H](N)C(=O)O; ξV = CC(C)C(N)C(=O)O

Target: T1, PE-labeled human PD-L1-Ig binding to Jurkat cell line over-expressing human PD-1 (Jurkat-PD-1) (Homo sapiens, UniProt Q15116)
T1 construct: expressed in transfected cells; host or cells: Jurkat
Assay: Jurkat-PD-1 Cell Binding High-Content Screening Assay (CBA): Method 1
Settings: Jurkat-hPD-1 cells, PE-labeled PD-L1-Ig 20 nM final; read-out: Jurkat HPDL1 PD1 IC50 (uM) (Method 1)

T1 sequence (Q15116 25-288): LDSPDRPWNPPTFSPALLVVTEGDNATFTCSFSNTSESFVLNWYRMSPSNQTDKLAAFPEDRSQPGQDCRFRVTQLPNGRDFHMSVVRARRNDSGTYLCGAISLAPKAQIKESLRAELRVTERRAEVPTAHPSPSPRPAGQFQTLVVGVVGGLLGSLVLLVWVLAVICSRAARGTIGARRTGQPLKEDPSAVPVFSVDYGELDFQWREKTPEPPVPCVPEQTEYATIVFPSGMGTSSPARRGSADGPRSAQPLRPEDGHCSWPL

Row | Structure (SMILES) | IC50 [µM]
1 | C#CC[C@H](NC(=O)[C@@H](C)NC(=O)[C@@H]1CSCC(=O)N[C@@H]([C@@H](C)O)C(=O)N[C@@H](Cc2ccc(OCC(=O)O)cc2)C(=O)N[C@@H](CC(=O)O)C(=O)N[C@@H](Cc2cccc(C)c2)C(=O)N[C@@H](Cc2ccc(OCC(=O)O)cc2)C(=O)N[C@@H](Cc2ccc(-c3ccccc3)cc2)C(=O)N[C@@H](Cc2ccc(OCC(=O)O)cc2)C(=O)N(C)[C@@H](C)C(=O)N[C@H](CC(C)C)C(=O)N[C@@H](CCN)C(=O)N[C@@H](CC2CCCCC2)C(=O)N[C@@H](C(C)(C)O)C(=O)N[C@@H](CCC(=O)O)C(=O)N1)C(=O)O [Compound 1944] ({CH2CO}-TY(Carboxymethyl)D[Phe(3-Me)]Y(Carboxymethyl)[Bip]Y(Carboxymethyl)[NMeA][dL][Dab][Cha][Val(3-OH)]EC[dA][Pra]-OH; thioether N-14) | 0.9
2 | CC(C)C[C@@H]1NC(=O)[C@H](CCCNC(=N)N)NC(=O)[C@@H](c2ccccc2)NC(=O)[C@H](C)N(C)C(=O)[C@H](CCCNC(=N)N)NC(=O)[C@H](Cc2ccc(-c3ccccc3)cc2)NC(=O)[C@H](C(C)C)NC(=O)[C@H](Cc2c[nH]c3ccccc23)NC(=O)[C@H](CC(=O)O)NC(=O)[C@H](Cc2ccc(O)cc2)NC(=O)[C@H](Cc2ccccc2)NC(=O)CSC[C@@H](C(=O)N[C@@H](C)C(N)=O)NC(=O)[C@H]([C@@H](C)O)NC(=O)[C@H](C(C)C)NC1=O [Compound 1059] ({CH2CO}-FYDWV[Bip]R[NMeA][dPhg]RLVTCA-NH2; thioether N-14) | 0.21
3 | CC(=O)NCCCC[C@@H]1NC(=O)[C@H](C(C)C)NC(=O)[C@H](CC2CCCCC2)NC(=O)[C@H](CCN)NC(=O)[C@@H](CC(C)C)NC(=O)[C@H](C)N(C)C(=O)[C@H](CCC(N)=O)NC(=O)[C@H](Cc2ccc(-c3ccccc3)cc2)NC(=O)[C@H](C(C)C)NC(=O)[C@H](Cc2cccc(C)c2)NC(=O)[C@H](CC(=O)O)NC(=O)[C@H](Cc2ccc(OCC(=O)O)cc2)NC(=O)[C@H](Cc2ccc(OCC(=O)O)cc2)NC(=O)CSC[C@@H](C(=O)N[C@@H](CCN)C(N)=O)NC1=O [Compound 2129] ({CH2CO}-Y(Carboxymethyl)Y(Carboxymethyl)D[Phe(3-Me)]V[Bip]Q[NMeA][dL][Dab][Cha]VK(Ac)C[Dab]-NH2; thioether N-14) | 0.01
4 | CC(C)C[C@@H]1NC(=O)[C@H](Cc2c[nH]c3ccccc23)NC(=O)[C@H](CC(=O)O)NC(=O)[C@H](Cc2ccc(O)cc2)NC(=O)[C@H](Cc2ccccc2)NC(=O)CSC[C@@H](C(=O)N[C@@H](C)C(N)=O)NC(=O)[C@H](CO)NC(=O)[C@H](C(C)C)NC(=O)[C@H](CC(C)C)NC(=O)[C@H](CC(N)=O)NC(=O)[C@@H](CC(C)C)NC(=O)[C@H](C)N(C)C(=O)[C@H](C(C)C)NC(=O)[C@H](Cc2ccc(-c3ccccc3)cc2)NC1=O [Compound 1745] ({CH2CO}-FYDWL[Bip]V[NMeA][dL]NLVSCA-NH2; thioether N-14) | 0.02
5 | CCC(C)[C@@H]1NC(=O)[C@H](Cc2ccc(-c3ccccc3)cc2)NC(=O)[C@H](CC(C)C)NC(=O)[C@H](Cc2c[nH]c3ccccc23)NC(=O)[C@H](CC(=O)O)NC(=O)[C@H](Cc2ccc(C(=O)O)cc2)NC(=O)[C@H](Cc2ccc(OCC(=O)O)cc2)NC(=O)CSC[C@@H](C(=O)N[C@@H](CC(N)=O)C(N)=O)NC(=O)[C@H](CO)NC(=O)[C@H](C(C)C)NC(=O)[C@H](CC2CCCCC2)NC(=O)[C@H](CCN)NC(=O)[C@@H](CC(C)C)NC(=O)[C@H](C)N(C)C1=O (stereo partly drawn) [Compound 1917] ({CH2CO}-Y(Carboxymethyl)[Phe(4-COOH)]DWL[Bip][Ile(3ξ)][NMeA][dL][Dab][Cha]VSCN-NH2; thioether N-14) | 0.04
6 | CC(C)C[C@@H]1NC(=O)[C@H](Cc2c[nH]c3ccccc23)NC(=O)[C@H](CC(=O)O)NC(=O)[C@H](Cc2ccccc2Cl)NC(=O)[C@H](Cc2ccccc2)NC(=O)CSC[C@@H](C(=O)N[C@@H](C)C(N)=O)NC(=O)[C@H](CO)NC(=O)[C@H](C(C)C)NC(=O)[C@H](CC(C)C)NC(=O)[C@H](CC(N)=O)NC(=O)[C@@H](C)NC(=O)[C@H](C)N(C)C(=O)[C@H](C(C)C)NC(=O)[C@H](Cc2ccc(-c3ccccc3)cc2)NC1=O [Compound 1807] ({CH2CO}-F[Phe(2-Cl)]DWL[Bip]V[NMeA][dA]NLVSCA-NH2; thioether N-14) | 0.24
7 | CC(C)C[C@@H]1NC(=O)[C@H](CCN)NC(=O)[C@@H](CC(C)C)NC(=O)[C@H](C)N(C)C(=O)[C@H](Cc2ccccc2)NC(=O)[C@H](Cc2ccc(-c3ccccc3)cc2)NC(=O)[C@H](C(C)C)NC(=O)[C@H](Cc2c[nH]c3ccccc23)NC(=O)[C@H](CC(=O)O)NC(=O)[C@H](Cc2ccc(O)cc2)NC(=O)[C@H](CC(N)=O)NC(=O)CSC[C@@H](C(=O)N[C@@H](C)C(N)=O)NC(=O)[C@H]([C@@H](C)O)NC(=O)[C@H](C(C)C)NC1=O [Compound 1272] ({CH2CO}-NYDWV[Bip]F[NMeA][dL][Dab]LVTCA-NH2; thioether N-14) | 0.16
8 | CC[C@@H](C)[C@@H]1NC(=O)[C@H](Cc2ccc(-c3ccccc3)cc2)NC(=O)[C@H](CC(C)C)NC(=O)[C@H](Cc2c[nH]c3ccccc23)NC(=O)[C@H](CC(=O)O)NC(=O)[C@H](Cc2ccc(C(=O)O)cc2)NC(=O)[C@H](Cc2ccc(OCC(=O)O)cc2)NC(=O)CSC[C@@H](C(=O)N[C@@H](CCCCN)C(N)=O)NC(=O)[C@H](CN)NC(=O)C(C(C)C)NC(=O)[C@H](CC(C)C)NC(=O)[C@H](CC(N)=O)NC(=O)[C@@H](CC(C)C)NC(=O)[C@H](C)N(C)C1=O (stereo partly drawn) [Compound 2108] ({CH2CO}-Y(Carboxymethyl)[Phe(4-COOH)]DWL[Bip][aIle][NMeA][dL]NL[ξV][Dap]CK-NH2; thioether N-14) | 0.11
9 | CC(C)C[C@@H]1NC(=O)[C@H](CCN)NC(=O)[C@@H](CC(C)C)NC(=O)[C@H](C)N(C)C(=O)[C@H](CC(C)C)NC(=O)[C@H](Cc2ccc(-c3ccccc3)cc2)NC(=O)[C@H](C(C)C)NC(=O)[C@H](Cc2c[nH]c3ccccc23)NC(=O)[C@H](CC(=O)O)NC(=O)[C@H](Cc2ccc(O)cc2)NC(=O)[C@H](CC(N)=O)NC(=O)CSC[C@@H](C(=O)N[C@@H](C)C(N)=O)NC(=O)[C@H]([C@@H](C)O)NC(=O)[C@H](C(C)C)NC1=O [Compound 1270] ({CH2CO}-NYDWV[Bip]L[NMeA][dL][Dab]LVTCA-NH2; thioether N-14) | 0.11
10 | CC[C@@H](C)[C@@H]1NC(=O)[C@H](Cc2ccc(-c3ccccc3)cc2)NC(=O)[C@H](Cc2cnc[nH]2)NC(=O)[C@H](Cc2c[nH]c3ccccc23)NC(=O)[C@H](CC(=O)O)NC(=O)[C@H](Cc2ccc(C(=O)O)cc2)NC(=O)[C@H](Cc2ccc(OCC(=O)O)cc2)NC(=O)CSC[C@@H](C(=O)N[C@@H](CCCCN)C(N)=O)NC(=O)[C@H](CO)NC(=O)C(C(C)C)NC(=O)[C@H](CC(C)C)NC(=O)[C@H](CC(N)=O)NC(=O)[C@@H](CC(C)C)NC(=O)[C@H](C)N(C)C1=O (stereo partly drawn) [Compound 2101] ({CH2CO}-Y(Carboxymethyl)[Phe(4-COOH)]DWH[Bip][aIle][NMeA][dL]NL[ξV]SCK-NH2; thioether N-14) | 0.11
11 | CC(C)C[C@@H]1NC(=O)[C@H](CCN)NC(=O)[C@@H](CC(C)C)NC(=O)[C@H](C)N(C)C(=O)[C@H](Cc2c[nH]c3ccccc23)NC(=O)[C@H](Cc2ccc(-c3ccccc3)cc2)NC(=O)[C@H](C(C)C)NC(=O)[C@H](Cc2c[nH]c3ccccc23)NC(=O)[C@H](CC(=O)O)NC(=O)[C@H](Cc2ccc(O)cc2)NC(=O)[C@H](CC(N)=O)NC(=O)CSC[C@@H](C(=O)N[C@@H](C)C(N)=O)NC(=O)[C@H]([C@@H](C)O)NC(=O)[C@H](C(C)C)NC1=O [Compound 1263] ({CH2CO}-NYDWV[Bip]W[NMeA][dL][Dab]LVTCA-NH2; thioether N-14) | 0.89
